Data reported in the SangsterLogP compilation.

Experiment: method code SF-AS, from DOI: 10.1111/j.2042-7158.1993.tb07096.x, PMID: 7901370
Conditions: pH 7.4

SMILES | logD
CCNC(=S)NS(=O)(=O)c1cnccc1NC1CCCCC1 | 0.2
O=S(=O)(NC(=S)NC1CCCCC1)c1cnccc1NC1CCCCCC1 | 1.81
CCNC(=S)NS(=O)(=O)c1cnccc1NC1CCCCCCC1 | 0.96
CC(C)NC(=S)NS(=O)(=O)c1cnccc1NC1CCCCCCC1 | 1.3

The next lines start with the values.

logD | SMILES
0.85 | O=S(=O)(NC(=S)N1CCCCC1)c1cnccc1NC1CCCCC1
1.25 | O=S(=O)(NC(=S)N1CCCCC1)c1cnccc1NC1CCCCCC1
2.14 | O=S(=O)(NC(=S)NC1CCCCC1)c1cnccc1NC1CCCCCCC1
1.6 | O=S(=O)(NC(=S)N1CCCCC1)c1cnccc1NC1CCCCCCC1
